From patent publication US10517889B2, “Modulators of SMAD7 expression” (Ionis Pharmaceuticals, Inc., priority 2017, dated 2019)

Experiments:
[1] = system: human peripheral blood mononuclear cells (PBMCs); assay: Human PBMC activation assay, cytokine levels (IL-10, IL-6, MCP-1, TNF-α) in supernatant after 24 hours (Example 9); conditions: human PBMC supernatant after 24 hours
[2] = Body and organ weights after oral gavage in CD-1 mice (Example 7); format: in vivo; conditions: 500 mg/kg oral gavage once daily for 4 weeks, end of study
Description: (§1) Groups of 7-8 week old male CD-1 mice were given an oral gavage dose once daily for 4 weeks of 500 mg/kg of Ionis SMAD7 oligonucleotides. Each group contained 8 mice. One group of male CD-1 mice was administered saline by oral gavage daily.
Final body weights were measured at the end of the study. There was no significant difference in the body weight of the mice treated with antisense oligonucleotide compared to the control.
None of the Ionis SMAD7 oligonucleotides caused any changes in organ weights outside the expected range for antisense oligonucleotides.

[3] = system: human SMAD7 mRNA; assay: Antisense inhibition of human SMAD7 mRNA expression in Hep3B cells by 3-10-3 cEt gapmers, 10,000 nM, electroporation (Example 2); format: cell-based; conditions: approximately 24 hours
Outline: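 Percent inhibition of SMAD7 mRNA, relative to untreated cells, after ~24 h exposure of electroporated Hep3B cells to 10,000 nM cEt gapmer; levels by qRT-PCR, corrected for total RNA.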

[4] = system: mouse Smad7 mRNA; assay: Pharmacology: mouse Smad7 mRNA expression in liver, kidney, duodenum, ileum and colon after subcutaneous administration in CD-1 mice (Example 6); format: in vivo; conditions: 50 mg/kg subcutaneous twice weekly for 7 weeks, normalized to GAPDH
Description: Groups of 8-9 week old male CD-1 mice were injected subcutaneously twice a week for 7 weeks with 50 mg/kg of Ionis oligonucleotides (100 mg/kg/week dose). Each group contained 4 mice. One group of male CD-1 mice was injected subcutaneously twice a week for 7 weeks with PBS. Plasma was collected for analysis on day 28.
The pharmacological activity of the Ionis oligonucleotides in mice was assessed by measuring mouse Smad7 mRNA expression in liver, kidney, duodenum, ileum, and colon at necropsy.
Tissue samples from all mice were analyzed for Smad7 mRNA expression using the primer probe set HTS7555 (forward sequence […], designated SEQ ID NO: 2737; reverse sequence […], designated SEQ ID NO: 2738; probe sequence […], designated SEQ ID NO: 2739), which was normalized to mRNA levels of the housekeeping gene, GAPDH. One-way ANOVA with Dunnet's comparison test was used for statistical analysis.

[5] = Blood chemistry markers after oral gavage in CD-1 mice (Example 7); format: in vivo; conditions: 500 mg/kg oral gavage once daily for 4 weeks, day 30
Description: The objective of this study was to evaluate the tolerability and pharmacodynamics of select Ionis human SMAD7 antisense oligonucleotides in CD-1 mice following 4 weeks of treatment. The mice were administered oligonucleotides by oral gavage.
as §1
Levels of transaminases, albumin, and BUN were measured using a Toshiba 200FR NEO chemistry analyzer (Toshiba Co., Japan).

[6] = Plasma chemistry markers after subcutaneous administration in beagle dogs (Example 8); conditions: 30 mg/kg subcutaneous days 1, 3, 5, 8, 15, 22, 29, plasma at day 31
Description: Groups of 24-25 week old male beagle dogs were injected subcutaneously with 30 mg/kg ION Ionis oligonucleotide. There were 4 animals per group. Dogs were injected every two days for the first week (day 1, 3, and 5) and once weekly thereafter (days 8, 15, 22, and 29). A control group of dogs received subcutaneous injections of PBS. Dogs were sacrificed on day 31 approximately 48 hours after the final dose and organs and plasma were harvested for further analysis.
To evaluate the effect of Ionis SMAD7 oligonucleotides on liver and kidney function, plasma levels of transaminases, albumin, creatine and BUN were measured using an automated clinical chemistry analyzer (Toshiba 200FR Neo chemistry analyzer, Toshiba Co., Japan).

[7] = Oligonucleotide concentration in tissues by LC-MS/MS after subcutaneous administration in beagle dogs (Example 8); format: in vivo; conditions: 30 mg/kg subcutaneous, 48 hours after the last dose
Description: There were 4 animals per group.
Oligonucleotide concentrations of both ION 830025 and ION 798781 were detected in various tissues by LC-MS/MS analysis. The results are presented below, expressed as μg/g tissue. The data was collected 48 hours after the last dose.

[8] = SMAD7 mRNA, Hep3B cells, 10,000 nM antisense oligonucleotide, electroporation, primer probe set RTS5062, relative to untreated control cells

With “790615 (CCAATGAGAATGCTTC; 3-10-3 cEt gapmer, further chemistry not given here) [compound 790615]” the “Levels of IL-6” value ([1]; 0.0128 μM oligonucleotide) was 3.7 pg/mL, the “Levels of IL-10” value ([1]; 0.0128 μM oligonucleotide) was 1.1 pg/mL and the “Levels of MCP-1” value ([1]; 0.0128 μM oligonucleotide) was 329.5 pg/mL. For the same substance, the “Levels of TNF-α” value ([1]; 0.0128 μM oligonucleotide) was 3.1 pg/mL, the “Levels of IL-6” value ([1]; 0.064 μM oligonucleotide) was 3.8 pg/mL and the “Levels of IL-10” value ([1]; 0.064 μM oligonucleotide) was 1.6 pg/mL. The “Levels of MCP-1” value ([1]; 0.064 μM oligonucleotide) was 281.8 pg/mL, the “Levels of TNF-α” value ([1]; 0.064 μM oligonucleotide) was 2.5 pg/mL and the “Levels of IL-6” value ([1]; 0.32 μM oligonucleotide) was 6.5 pg/mL. For the same substance, the “Levels of IL-10” value ([1]; 0.32 μM oligonucleotide) was 2.4 pg/mL, the “Levels of MCP-1” value ([1]; 0.32 μM oligonucleotide) was 424.3 pg/mL and the “Levels of TNF-α” value ([1]; 0.32 μM oligonucleotide) was 3.4 pg/mL. The “Levels of IL-6” value ([1]; 1.6 μM oligonucleotide) was 9.0 pg/mL, the “Levels of IL-10” value ([1]; 1.6 μM oligonucleotide) was 3.1 pg/mL and the “Levels of MCP-1” value ([1]; 1.6 μM oligonucleotide) was 495.8 pg/mL. The “Levels of TNF-α” value ([1]; 1.6 μM oligonucleotide) was 4.2 pg/mL, the “Levels of IL-6” value ([1]; 8 μM oligonucleotide) was 10.0 pg/mL and the “Levels of IL-10” value ([1]; 8 μM oligonucleotide) was 1.9 pg/mL. For the same substance, the “Levels of MCP-1” value ([1]; 8 μM oligonucleotide) was 449.0 pg/mL, the “Levels of TNF-α” value ([1]; 8 μM oligonucleotide) was 4.8 pg/mL and the “Levels of IL-6” value ([1]; 40 μM oligonucleotide) was 11.0 pg/mL. The “Levels of IL-10” value ([1]; 40 μM oligonucleotide) was 0.8 pg/mL, the “Levels of MCP-1” value ([1]; 40 μM oligonucleotide) was 301.9 pg/mL and the “Levels of TNF-α” value ([1]; 40 μM oligonucleotide) was 4.8 pg/mL. The “Levels of IL-6” value ([1]; 200 μM oligonucleotide) was 22.9 pg/mL, the “Levels of IL-10” value ([1]; 200 μM oligonucleotide) was 0.7 pg/mL and the “Levels of MCP-1” value ([1]; 200 μM oligonucleotide) was 81.6 pg/mL. For the same substance, the “Levels of TNF-α” value ([1]; 200 μM oligonucleotide) was 4.8 pg/mL, the Body weight [2] was 35 g and the Heart weight [2] was 0.17 g. For the same substance, the Kidneys weight [2] was 0.64 g, the “Liver with gallbladder weight” value [2] was 1.88 g and the Spleen weight [2] was 0.11 g. The “% Inhibition” value ([3]; Hep3B cells, electroporation with 10,000 nM antisense oligonucleotide, primer probe set RTS5062, relative to untreated control cells) was 38%, the “% Inhibition” value [3, 8] was 40% and the “% inhibition of Smad7 mRNA expression (compared to control), Kidney” value [4] was 23%. For the same substance, the “% inhibition of Smad7 mRNA expression (compared to control), Liver” value [4] was 18%, the ALT [5] was 41 IU/L and the AST [5] was 77 IU/L. For the same substance, the Albumin [5] was 3.3 g/dL, the BUN [5] was 22 mg/dL and the Bilirubin [5] was 0.3 mg/dL. The ALT [6] was 38 IU/L, the AST [6] was 41 IU/L and the Albumin [6] was 3.4 g/dL. It also gave a BUN [6] of 15.7 mg/dL, a Bilirubin [6] of 0.2 mg/dL and a Creatine [6] of 0.8 mg/dL. The “Full length oligonucleotide, Distal colon” value [7] was 17 µg/g, the “Full length oligonucleotide, Duodenum” value [7] was 17 µg/g and the “Full length oligonucleotide, Ileum” value [7] was 18 µg/g. For the same substance, the “Full length oligonucleotide, Kidney” value [7] was 1156 µg/g, the “Full length oligonucleotide, Liver” value [7] was 220 µg/g and the “Full length oligonucleotide, Proximal colon” value [7] was 17 µg/g.
With “798781 (CGTAAGATTCACAGCA; 3-10-3 cEt gapmer, further chemistry not given here) [compound 798781]” the “Levels of IL-6” value ([1]; 0.0128 μM oligonucleotide) was 3.4 pg/mL, the “Levels of IL-10” value ([1]; 0.0128 μM oligonucleotide) was 2.2 pg/mL and the “Levels of MCP-1” value ([1]; 0.0128 μM oligonucleotide) was 332.9 pg/mL. The “Levels of TNF-α” value ([1]; 0.0128 μM oligonucleotide) was 2.6 pg/mL, the “Levels of IL-6” value ([1]; 0.064 μM oligonucleotide) was 4.9 pg/mL and the “Levels of IL-10” value ([1]; 0.064 μM oligonucleotide) was 2.0 pg/mL. For the same substance, the “Levels of MCP-1” value ([1]; 0.064 μM oligonucleotide) was 387.0 pg/mL, the “Levels of TNF-α” value ([1]; 0.064 μM oligonucleotide) was 3.3 pg/mL and the “Levels of IL-6” value ([1]; 0.32 μM oligonucleotide) was 6.9 pg/mL. For the same substance, the “Levels of IL-10” value ([1]; 0.32 μM oligonucleotide) was 2.3 pg/mL, the “Levels of MCP-1” value ([1]; 0.32 μM oligonucleotide) was 483.1 pg/mL and the “Levels of TNF-α” value ([1]; 0.32 μM oligonucleotide) was 3.8 pg/mL. The “Levels of IL-6” value ([1]; 1.6 μM oligonucleotide) was 12.3 pg/mL, the “Levels of IL-10” value ([1]; 1.6 μM oligonucleotide) was 3.9 pg/mL and the “Levels of MCP-1” value ([1]; 1.6 μM oligonucleotide) was 597.2 pg/mL. For the same substance, the “Levels of TNF-α” value ([1]; 1.6 μM oligonucleotide) was 5.1 pg/mL, the “Levels of IL-6” value ([1]; 8 μM oligonucleotide) was 18.1 pg/mL and the “Levels of IL-10” value ([1]; 8 μM oligonucleotide) was 2.9 pg/mL. The “Levels of MCP-1” value ([1]; 8 μM oligonucleotide) was 582.7 pg/mL, the “Levels of TNF-α” value ([1]; 8 μM oligonucleotide) was 6.5 pg/mL and the “Levels of IL-6” value ([1]; 40 μM oligonucleotide) was 20.7 pg/mL. For the same substance, the “Levels of IL-10” value ([1]; 40 μM oligonucleotide) was 1.4 pg/mL, the “Levels of MCP-1” value ([1]; 40 μM oligonucleotide) was 565.8 pg/mL and the “Levels of TNF-α” value ([1]; 40 μM oligonucleotide) was 6.3 pg/mL. For the same substance, the “Levels of IL-6” value ([1]; 200 μM oligonucleotide) was 28.0 pg/mL, the “Levels of IL-10” value ([1]; 200 μM oligonucleotide) was 0.6 pg/mL and the “Levels of MCP-1” value ([1]; 200 μM oligonucleotide) was 61.3 pg/mL. For the same substance, the “Levels of TNF-α” value ([1]; 200 μM oligonucleotide) was 4.0 pg/mL, the Body weight [2] was 35 g and the Heart weight [2] was 0.17 g. The Kidneys weight [2] was 0.64 g, the “Liver with gallbladder weight” value [2] was 1.86 g and the Spleen weight [2] was 0.09 g. For the same substance, the “% Inhibition” value ([3]; Hep3B cells, electroporation with 10,000 nM antisense oligonucleotide, SMAD7 mRNA by RT-PCR (RTS5062), relative to untreated control cells) was 52%, the “% Inhibition” value [3, 8] was 69% and the “% inhibition of Smad7 mRNA expression (compared to control), Kidney” value [4] was 18%. The “% inhibition of Smad7 mRNA expression (compared to control), Liver” value [4] was 28%, the ALT [5] was 43 IU/L and the AST [5] was 73 IU/L. The Albumin [5] was 3.2 g/dL, the BUN [5] was 25 mg/dL and the Bilirubin [5] was 0.3 mg/dL. The ALT [6] was 32 IU/L, the AST [6] was 45 IU/L and the Albumin [6] was 3.0 g/dL. The BUN [6] was 19.4 mg/dL, the Bilirubin [6] was 0.2 mg/dL and the Creatine [6] was 0.9 mg/dL. For the same substance, the “Full length oligonucleotide, Distal colon” value [7] was 68 µg/g, the “Full length oligonucleotide, Duodenum” value [7] was 97 µg/g and the “Full length oligonucleotide, Ileum” value [7] was 177 µg/g. For the same substance, the “Full length oligonucleotide, Kidney” value [7] was 3300 µg/g, the “Full length oligonucleotide, Liver” value [7] was 964 µg/g and the “Full length oligonucleotide, Proximal colon” value [7] was 73 µg/g.
